Data reported in US20110296540A1, “ASSAY FOR SCREENING ANTIDEPRESSANTS” (priority 2008, published 2011).
Where two headings read alike, the source gives them in different places.

Assays:
Giα2 = conditions: hypothalamus
Description: (§1) Tissue preparation: Animals were sacrificed by cervical dislocation. Selected brain regions were dissected and placed in tubes containing RNAlater (Ambion), incubated at 4 degrees C. overnight and stored at −80 degrees C. until processing.
(§2) Brain regions (10-20 mg) were homogenized for 20 sec at medium speed in 1.25 ml lysis/denaturation buffer (Ambion) using an Autogizer™ (Tomtec). Total RNA was isolated from 100-300 ul aliquots of the homogenate using the RNAqueous™ 96 automated kit (Ambion) according to the manufacturer's protocol. A second DNase I digestion was incorporated after elution of the RNA from the Ambion filter plate to remove residual genomic DNA. Digestion was performed for 1 hr at room temperature using DNase I™ (Invitrogen) and the buffer supplied with the enzyme. After inactivation of the DNase with EDTA and heat, the RNA was desalted with a Multiscreen™ filter plate (Millipore) and stored at −80° C. Conversion of total RNA into first strand cDNA was accomplished with Superscript II™ enzyme (Invitrogen) followed by desalting over a Multiscreen plate. Approximately 1 ug of total RNA was used for each cDNA reaction. The yield of cDNA was determined using Quant-iT Oligreen™ reagent (Invitrogen). Prior to the Oligreen assay, total RNA carried over from the cDNA reaction was hydrolyzed with NaOH and heat, followed by neutralization with Tris buffer. This treatment eliminates any contribution of the RNA to the Oligreen signal. The unknown cDNA samples were compared to a standard curve derived using a 18mer oligonucleotide. Replica cDNA plates containing 3 ng of cDNA per well were prepared using an Evolution P3™ workstation (PerkinElmer). Each animal in a given experiment was represented by one well on each plate and each plate always contained the control and treatment groups.
(§3) Quantitative PCR (qPCR) was carried out in 25 ul reactions using Full Velocity™ enzyme (Stratagene). Plates were run on either a Stratagene MX3000P™ or an Applied Biosystems 7900 HT instrument. The cycling parameters were set based on recommendations from the enzyme manufacturer. One gene expression profile was analyzed per PCR plate and duplicate plates were run for each gene. Two housekeeping genes, cyclophilin and GAPDH, were included in the gene list and were used to normalize the expression results obtained from the other genes of interest (see data analysis section). The sequences of the primers and probes for each gene are listed in supplemental table 1. Duplicate cycle thresholds (Ct values) were obtained for each gene/region and averaged. […] After converting delta Ct values to percentage, the mean and SEM of each animal group (controls and experimental) was calculated.

β-arrestin 2 = tested on: β-arrestin 2
Description: as §1, §2, §3

β-arrestin 1 = conditions: hypothalamus
Description: as §1, §2, §3

[1] = tested on: doublecortin positive cells; test: Doublecortin (DCX) labeling for maturation index study, corticosterone model; assay type: in vivo, mice
Description: The secondary antibody was biotinylated donkey anti-goat (1:500) (Jackson ImmunoResearch, West Grove, Pa.) in PBS for 2 hr at room temperature. Sections were developed using avidin-biotin complex (Vector, USA) and DAB kit.

C57BL/6Ntac mice [2] = test: Open Field paradigm, chronic corticosterone model; assay type: in vivo
Excerpt: The procedure described previously was used (Dulawa et al., 2004). Motor activity was quantified in four Plexiglas open field boxes 43 times 43 cm2 (MED Associates, Georgia, Vt.). Two sets of 16 pulse-modulated infrared photobeams were placed on opposite walls 2.5-cm apart to record x-y ambulatory movements. Activity chambers were computer interfaced for data sampling at 100-ms resolution. The computer defined grid lines that divided each Open Field into center and surround regions, with each of four lines being 11 cm from each wall. Dependent measures in the center were the total time and the number of entries over a 30-min period of test. The whole session was also divided in […] to analyze the time spent in the center every 5 min. The overall motor activity was quantified as the total distance traveled (cm) or distance traveled in the center divided by total distance traveled.
Mice were anesthetized with ketamine and xylazine (100 mg/ml ketamine; 20 mg/ml xylazine), placed in a stereotaxic frame and exposed to cranial irradiation using a Siemens Stabilopan X-ray system operated at 300 kVp and 20 mA. Animals were protected with a lead shield that covered the entire body, but left unshielded a 3.22×11-mm treatment field above the hippocampus (interaural 3.00 to 0.00) exposed to X-Ray. Dosimetry was done using a Capintec Model PR06G electrometer ionization chamber and Kodak Readypack Radiographic XV films. The corrected dose rate was approximately 1.8 Gy per min at a source to skin distance of 30 cm. The procedure lasted 2 min and 47 sec, delivering a total of 5 Gy. Three 5 Gy doses were delivered on days 1, 4 and 8.

C57BL/6Ntac mice [3] = test: Home cage activity; assay type: in vivo; conditions: chronic antidepressant treatment (fluoxetine 18 mg/kg/day)
Description: Home cage activity Home cage activity was quantified using the ActiV-Meter (Bioseb, France) over a 24 hours period. During the experiment, food and water were provided ad libitum. Various parameters such as activity time (sec), ambulatory distance (cm) and inactivity duration (calculated from the difference between immobility and motionless activity duration while the animal is eating or scratching) were recorded. The open field paradigm, the novelty suppressed feeding, the forced swim test The procedure for each behavioral test, i.e. the open field paradigm, the novelty suppressed feeding, the forced swim test, is described in the materials and methods section.

SvEv129 mice = test: Novelty-suppressed feeding test, sham or x-irradiated animals; assay type: in vivo; conditions: 28 d of fluoxetine; sham animals
Description: Novelty-suppressed feeding test. […] The floor was covered with ˜2 cm of wooden bedding. Twenty-four hours before behavioral testing, animals were deprived of all food in the home cage. At the time of testing, two food pellets were placed on a piece of round filter paper (12 cm diameter) positioned in the center of the box. The test began immediately after the animal was placed in a corner of the box. The latency to approach the pellet and begin feeding was recorded (maximum time, 5 min). Immediately afterward, the animal was transferred back to its home cage and the amount of food consumed in 5 min was measured. Each mouse was weighed before food deprivation and before testing to assess the percentage of body weight lost.
In the NSF paradigm, conflicting motivations are produced by presenting a food-deprived animal with a reward (food) within the context of a novel, aversive environment. The NSF test is among the few behavioral paradigms that can differentiate chronic versus subchronic responses to antidepressant treatments, using the latency to begin eating as an index of antidepressant/anxiety-like behavior.

Creb-1 gene = tested on: Creb-1 gene
Description: as §1, §2
(§4) Quantitative PCR (qPCR) was carried out in 25 ul reactions using Full Velocity™ enzyme (Stratagene). Plates were run on either a Stratagene MX3000P™ or an Applied Biosystems 7900 HT instrument. The cycling parameters were set based on recommendations from the enzyme manufacturer. One gene expression profile was analyzed per PCR plate and duplicate plates were run for each gene. Two housekeeping genes, cyclophilin and GAPDH, were included in the gene list and were used to normalize the expression results obtained from the other genes of interest (see data analysis section). The sequences of the primers and probes for each gene are listed in supplemental table 1. Duplicate cycle thresholds (Ct values) were obtained for each gene/region and averaged. The values for cyclophilin and GAPDH were combined and used to normalize the expression values from the other genes by employing the delta Ct method. After converting delta Ct values to percentage, the mean and SEM of each animal group (controls and experimental) was calculated.
(§5) Tissue preparation, RNA extraction, DNA preparation and qPCR analysis were described in the materials and methods section. Data analysis and statistics Results from data analyses were expressed as mean±SEM. Data were analyzed using StatView 5.0 software (SAS Institute, Cary, N.C.).

[4] = tested on: mineralocorticoid receptor
Description: as §1, §2, §4, §5

## CNCCC(Oc1ccc(C(F)(F)F)cc1)c1ccccc1 (centres unmarked) [fluoxetine]
Giα2
  Giα2 expression: totally reversed
β-arrestin 2; hippocampus, fluoxetine
  β-arrestin 2 levels: opposite effect
β-arrestin 2; hypothalamus, fluoxetine in corticosterone-treated mice
  β-arrestin 2 expression: reversed
β-arrestin 1
  β-arrestin 1 expression: totally reversed
[1]; chronic fluoxetine, control animals
  number of doublecortin positive cells with tertiary dendrites: increased
[1]; in the presence of corticosterone, compared with controls
  effect of fluoxetine on the number of doublecortin positive cells and their dendritic morphology: even more pronounced
C57BL/6Ntac mice [2]; 3-week antidepressant treatment in corticosterone-treated mice, imipramine 40, fluoxetine 18 mg/kg/day
  corticosterone-induced anxiety phenotype in the Open Field (time and entries in the center): reversed
C57BL/6Ntac mice [2]; chronic corticosterone, with or without chronic fluoxetine
  ambulatory distance (Open Field): abolished
C57BL/6Ntac mice [2]; chronic fluoxetine, regardless of X-irradiation
  corticosterone-induced decrease of Open Field center parameters: reversed
C57BL/6Ntac mice [3]
  corticosterone-induced decreased home cage activity and flattened circadian rhythm: is not reversed
SvEv129 mice
  latency to feed (NSF): reduced latency to feed
Creb-1 gene; amygdala
  Creb-1 gene expression: unchanged
Creb-1 gene; hippocampus
  Creb-1 gene expression: unchanged
Creb-1 gene; hypothalamus
  Creb-1 gene expression: unchanged
[4]; amygdala
  mineralocorticoid receptor expression: unchanged
[4]; hippocampus
  mineralocorticoid receptor expression: unchanged
[4]; hypothalamus
  mineralocorticoid receptor expression: unchanged
